From ChEMBL document CHEMBL1147119 (2007)
Values after ≈ are worked out from the molar mass of the structure shown. Active and inactive are the calls of the source. No cut-off for these calls is given here.

Assays:
Bacillus anthracis = test: Antimicrobial activity against Bacillus anthracis Ames; format: functional
[1] = Trough level in BALB/c mouse at 50 mg/kg, ip after 6 hrs; format: ADME, organism-based; settings: in vivo
[2] = Trough level in BALB/c mouse at 25 mg/kg, ip after 6 hrs; format: ADME, organism-based; settings: in vivo
[3] = Cmax in BALB/c mouse at 50 mg/kg, ip; format: ADME, organism-based; settings: in vivo
[4] = Trough level in BALB/c mouse at 100 mg/kg, ip after 6 hrs; format: ADME, organism-based; settings: in vivo
Mus musculus [5] = test: Survival in BALB/c mouse infected with Bacillus anthracis Ames at 30 mg/kg, ip every 12 hrs for 14 days; format: functional, organism-based; parameters: dose 30 mg/kg
[6] = Cmax in BALB/c mouse at 25 mg/kg, ip; format: ADME, organism-based; settings: in vivo
Mus musculus [7] = test: Survival of Bacillus anthracis Ames infected BALB/c mouse at 30 mg/kg, ip every 12 hrs for 14 days administered 48 hrs after infection; format: functional
[8] = AUC (0-6h) in BALB/c mouse at 50 mg/kg, ip; format: ADME, organism-based; settings: plasma
[9] = Cmax in BALB/c mouse at 100 mg/kg, ip; format: ADME, organism-based; settings: in vivo
Mus musculus [10] = test: Survival of Bacillus anthracis Ames infected BALB/c mouse at 30 mg/kg, ip every 12 hrs for 14 days administered 36 hrs after infection; format: functional
[11] = AUC (0-6h) in BALB/c mouse at 100 mg/kg, ip; format: ADME, organism-based; settings: plasma
[12] = AUC (0-6h) in BALB/c mouse at 25 mg/kg, ip; format: ADME, organism-based; settings: plasma
Mus musculus [13] = test: Survival in BALB/c mouse infected with Bacillus anthracis Ames at 40 mg/kg every 6 hrs for 14 days; format: functional, organism-based; parameters: dose 40 mg/kg

Compound | MIC (Bacillus anthracis) [µg/mL] | concentration at 6 h [1] [ng/mL] | concentration at 6 h [2] [ng/mL] | Cmax [3] [ng/mL] | concentration at 6 h [4] [ng/mL] | Activity (Mus musculus [5]) | Cmax [6] [ng/mL] | survival at 30 mg/kg (Mus musculus [7]) [%] | AUC(0-t) at 6 h [8] [ng·h/mL] | Cmax [9] [ng/mL] | survival at 30 mg/kg (Mus musculus [10]) [%] | AUC(0-t) at 6 h [11] [ng·h/mL] | AUC(0-t) at 6 h [12] [ng·h/mL] | Activity (Mus musculus [13])
O=C(O)c1cn(C2CC2)c2cc(N3CCNCC3)c(F)cc2c1=O [CIPROFLOXACIN] | 0.25 (≈ 0.754 µM) | 1830 | 1000 | 10700 | 1670 | Active | 6600 | 80 | 14100 | 20000 | 80 | 37700 | 6600 | 
C[C@H]1c2cccc(O)c2C(=O)C2=C(O)[C@]3(O)C(=O)C(C(N)=O)=C(O)[C@@H](N(C)C)[C@@H]3[C@@H](O)[C@@H]21.O [DOXYCYCLINE] | 0.03 | 1670 | 1330 | 6700 | 6000 |  | 4000 |  | 23400 | 12000 |  | 57200 | 13700 | Active
